From patent US7342011B2, “Rifamycin analogs and uses thereof” (priority 2003, dated 2008) come the findings set out here.

Values after ≈ are worked out from the molar mass of the structure shown.

What all share (format): cell-based
The subject of one experiment is E. coli. The experiment is described as follows: MIC assay, E. coli.
In another experiment the test system is S. aureus. The experiment is described as follows: MIC assay, S. aureus.
The test system of a further experiment is S. pneumo. In words: MIC assay, S. pneumo.
For another experiment, the system named is H. flu. In words: MIC assay, H. flu.
The next experiment deals with E. faecalis. In words: MIC assay, E. faecalis.

As to `CO[C@H]1/C=C/O[C@@]2(C)Oc3c(C)c(O)c4c(=O)c(c5oc6cc(N7CCC(NC(=O)N8CCC(NC(=O)SC)CC8)CC7)cc(O)c6nc-5c4c3C2=O)NC(=O)/C(C)=C\C=C\[C@H](C)[C@H](O)[C@@H](C)[C@@H](O)[C@@H](C)[C@H](OC(C)=O)[C@@H]1C` [Compound 49, 3′-hydroxy-5′-[4-(4-(S-methylthiocarbamyl)-1-piperidinylcarbonyl)amino-1-piperidinyl]benzoxazinorifamycin], in the experiment with E. coli, the “MIC (μg/mL) E. coli” value was above 8 µg/mL. Besides, the “MIC (μg/mL) S. aureus” value in the experiment on S. aureus amounted to 0.06 µg/mL (≈ 0.0546 µM). For the same compound, in the experiment with S. pneumo., the “MIC (μg/mL) S. pneumo.” value is 0.0005 µg/mL (≈ 0.000455 µM). Further, the “MIC (μg/mL) H. flu” value in the experiment with H. flu came out at 2 µg/mL (≈ 1.82 µM). Besides, in the experiment on E. faecalis, the “MIC (μg/mL) E. faecalis” value turned out to be 8 µg/mL (≈ 7.28 µM).
Take `CO[C@H]1/C=C/O[C@@]2(C)Oc3c(C)c(O)c4c(=O)c(c5oc6cc(N7CCC(NC(=O)N8CCN(C)CC8)CC7)cc(O)c6nc-5c4c3C2=O)NC(=O)/C(C)=C\C=C\[C@H](C)[C@H](O)[C@@H](C)[C@@H](O)[C@@H](C)[C@H](OC(C)=O)[C@@H]1C` [Compound 50, 3′-hydroxy-5′-[4-(4-methylpiperazinylcarbonyl)amino-1-piperidinyl]benzoxazinorifamycin]: the “MIC (μg/mL) E. coli” value with E. coli is above 8 µg/mL. Moreover, the “MIC (μg/mL) S. aureus” value against S. aureus was 0.03 µg/mL (≈ 0.0293 µM). Besides, in the experiment on S. pneumo., the “MIC (μg/mL) S. pneumo.” value stood at 0.00012 µg/mL (≈ 0.000117 µM). Moreover, the “MIC (μg/mL) H. flu” value with H. flu is 0.5 µg/mL (≈ 0.488 µM). In addition, the “MIC (μg/mL) E. faecalis” value against E. faecalis is 4 µg/mL (≈ 3.9 µM).
For `CCOC(=O)NCC1CCN(c2cc(O)c3nc4c5c6c7c(C)c(O)c5c(=O)c(c-4oc3c2)NC(=O)/C(C)=C\C=C\[C@H](C)[C@H](O)[C@@H](C)[C@@H](O)[C@@H](C)[C@H](OC(C)=O)[C@H](C)[C@@H](OC)/C=C/O[C@@](C)(O7)C6=O)CC1` [Compound 51, 3′-hydroxy-5′-[4-ethylcarbamylmethyl-1-piperidinyl]benzoxazinorifamycin], in the experiment on E. coli, the “MIC (μg/mL) E. coli” value stood at 8 µg/mL (≈ 8.12 µM). In addition, the “MIC (μg/mL) S. aureus” value against S. aureus was determined as 0.06 µg/mL (≈ 0.0609 µM). Further, the “MIC (μg/mL) S. pneumo.” value in the experiment on S. pneumo. came to 0.002 µg/mL (≈ 0.00203 µM). Besides, the “MIC (μg/mL) H. flu” value with H. flu was determined as 0.25 µg/mL (≈ 0.254 µM). In the experiment on E. faecalis, the “MIC (μg/mL) E. faecalis” value is 8 µg/mL (≈ 8.12 µM).
As for `CO[C@H]1/C=C/O[C@@]2(C)Oc3c(C)c(O)c4c(=O)c(c5oc6cc(N7CCC(CNC(C)=O)CC7)cc(O)c6nc-5c4c3C2=O)NC(=O)/C(C)=C\C=C\[C@H](C)[C@H](O)[C@@H](C)[C@@H](O)[C@@H](C)[C@H](OC(C)=O)[C@@H]1C` [Compound 55, 3′-hydroxy-5′-[4-acetylaminomethyl-1-piperidinyl]benzoxazinorifamycin], the “MIC (μg/mL) E. coli” value against E. coli was 8 µg/mL (≈ 8.38 µM). In addition, in the experiment on S. aureus, the “MIC (μg/mL) S. aureus” value is 0.008 µg/mL (≈ 0.00838 µM). Besides, the “MIC (μg/mL) S. pneumo.” value in the experiment on S. pneumo. was 0.00025 µg/mL (≈ 0.000262 µM). Further, in the experiment on H. flu, the “MIC (μg/mL) H. flu” value was 0.5 µg/mL (≈ 0.524 µM). In addition, the “MIC (μg/mL) E. faecalis” value against E. faecalis turned out to be 1 µg/mL (≈ 1.05 µM).
For the compound `CO[C@H]1/C=C/O[C@@]2(C)Oc3c(C)c(O)c4c(=O)c(c5oc6cc(N7CCC(c8ccccc8)CC7)cc(O)c6nc-5c4c3C2=O)NC(=O)/C(C)=C\C=C\[C@H](C)[C@H](O)[C@@H](C)[C@@H](O)[C@@H](C)[C@H](OC(C)=O)[C@@H]1C` [Compound 57, 3′-hydroxy-5′-[4-phenyl-1-piperidinyl]benzoxazinorifamycin], the “MIC (μg/mL) E. coli” value against E. coli is 8 µg/mL (≈ 8.33 µM). Moreover, the “MIC (μg/mL) S. aureus” value with S. aureus came to 0.008 µg/mL (≈ 0.00833 µM). Besides, in the experiment on S. pneumo., the “MIC (μg/mL) S. pneumo.” value amounted to 0.0005 µg/mL (≈ 0.000521 µM). Moreover, the “MIC (μg/mL) H. flu” value in the experiment on H. flu came out at 0.5 µg/mL (≈ 0.521 µM). In the experiment with E. faecalis, the “MIC (μg/mL) E. faecalis” value came out at 2 µg/mL (≈ 2.08 µM).
For the compound `CO[C@H]1/C=C/O[C@@]2(C)Oc3c(C)c(O)c4c(=O)c(c5oc6cc(N7C[C@@H]8CCCN(C)[C@@H]8C7)cc(O)c6nc-5c4c3C2=O)NC(=O)/C(C)=C\C=C\[C@H](C)[C@H](O)[C@@H](C)[C@@H](O)[C@@H](C)[C@H](OC(C)=O)[C@@H]1C` [Compound 58, 3′-hydroxy-5′-[1-methyl-(4aS,7aS)-octahydro-6H-pyrrolo[3,4-b]pyridin-6-yl]benzoxazinorifamycin], the “MIC (μg/mL) E. coli” value with E. coli is above 8 µg/mL. Moreover, the “MIC (μg/mL) S. aureus” value with S. aureus was 0.03 µg/mL (≈ 0.0319 µM). Further, in the experiment on S. pneumo., the “MIC (μg/mL) S. pneumo.” value turned out to be 0.004 µg/mL (≈ 0.00426 µM). In addition, the “MIC (μg/mL) H. flu” value in the experiment on H. flu was 0.25 µg/mL (≈ 0.266 µM). The “MIC (μg/mL) E. faecalis” value with E. faecalis was determined as 1 µg/mL (≈ 1.06 µM).
